Values of other authors in patent US10821185B2, “Triglyceride otic formulations and uses thereof” (Otonomy, Inc., priority 2016, dated 2020).
pIC50: −log10 of the molar value. Counter-ions that a name gives are not always drawn.

Key:
V2-R = conditions: infusion into the scala tympani
[1] = target: D136A mutant VP2 receptor (Homo sapiens, UniProt P30518, D136A)
[2] = after topical application
[3] = system: mouse collagen-induced arthritis model; conditions: 30 mg/kg dose
[4] = system: LPS-induced human PBMC cells; conditions: read-out: IC50 for inhibiting TNF-α production
tinnitus = conditions: administered by IV
[5] = system: LPS-induced MonoMac-6 cells; conditions: read-out: IC50 for inhibiting TNF-α production
TNF-α = conditions: LPS-challenged mice
rat arthritis model = conditions: 30 mg/kg
[6] = systemic administration
[7] = systemically treated

## Cc1ccccc1C(=O)Nc1ccc(C(=O)N2CCCC(N(C)C)c3ccccc32)cc1 (racemic) [OPC-31260, (±)-5-dimethylamino-1-(4-[2-methylbenzoylamino]benzoyl)-2,3,4,5-tetrahydro-1H-benzazepin hydrochloride]
V2-R
  Meniere's disease symptoms: marked reduction of Meniere's disease symptoms
[1]
  behaviour at constitutively activated D136A mutant VP2 receptor: inverse agonist

## C=CC[C@@H]1/C=C(\C)C[C@H](C)C[C@H](OC)[C@H]2O[C@@](O)(C(=O)C(=O)N3CCCC[C@H]3C(=O)O[C@H](/C(C)=C/[C@@H]3CC[C@@H](O)[C@H](OC)C3)[C@H](C)[C@@H](O)CC1=O)[C@H](C)C[C@@H]2OC (relative stereo) [tacrolimus, [3S-[3R*[E(1S*,3S*,4S*)], 4S*,5R*,8S*,9E,12R*,14R*,15S*,16R*,18S*,19S*,26aR*]]-5,6,8,11,12,13,14,15,16,17,18,19,24,25,26,26a-hexadecahydro-5,19-dihydroxy-3-[2-(4-hydroxy-3-methoxycyclohexyl)-1-methylethenyl]-14,16-dimethoxy-4,10,12,18-tetramethyl-8-(2-propenyl)-15,19-epoxy-3H-pyrido[2,1-39c][1,4]oxaazacyclotricosine-1,7,20,21(4H,23H)-tetrone monohydrate]
[2]
  bioavailability: less than 0.5%

## Cc1ccc2nc(NCCN)c3ncc(C)n3c2c1 [BMS-345541]
[3]
  severity of disease: significantly reduced the severity of disease

## CC[C@H](C)[C@H](NC(=O)[C@H](CC(C)C)[C@H](C(C)C)N(O)C=O)C(=O)Nc1ccccn1 [GW3333]
[4]
  pIC50: 6.01

## CCN(CC)CC(=O)Nc1c(C)cccc1C [Lidocaine]
tinnitus
  sufferers in whom the noise associated with tinnitus is reduced or eliminated: 60-80%

## CC(C)C[C@@H](C(=O)N[C@@H](CCCN/C(N)=N/[N+](=O)[O-])C(=O)Nc1nccs1)[C@H](C(C)C)N(O)C=O [Nitroarginine analog A]
[5]
  pIC50: 7.47

## O=C(Nc1cc(Cl)cc2c1[nH]c1cnccc12)c1cccnc1 [PS-1145]
TNF-α
  production of TNF-α: reduces the production of TNF-α

## COc1cccc2nc(-c3cccs3)nc(NN3C(=O)C=C(C)C3=O)c12 [SPC-839]
Rat arthritis model
  paw edema: reduces paw edema

## CCOc1ccc2c(c1)C1(CCC(OCCN3CCOCC3)CC1)C(=O)N2S(=O)(=O)c1ccc(C(=O)NC(C)(C)C)cc1OC (stereo not drawn) [SR-1211463, 1-(4-(N-tert-butylcarbamoyl)-2-methoxybenzenesulfonyl)-5-ethoxy-3-spiro-(4-(2-morpholinoethoxy)cyclohexane)indol-2-one fumarate]
[1]
  behaviour at constitutively activated D136A mutant VP2 receptor: inverse agonist

## adalimumab
[6]
  patients developing injection site reactions (erythema and/or itching, hemorrhage, pain and/or swelling): 20%

## etanercept
[7]
  patients experiencing injection site reactions: over one-third of patients
